pIC50: −log10 of the molar value. Read-outs that look alike come from different tables or passages of the source.
What was measured:
[1] = target: T1, α-glucosidase (EC3.2.1.20) (Saccharomyces cerevisiae, UniProt P53341); test: α-Glucosidase inhibition; format: biochemical
T1 construct: purchased Sigma Chemical Company
Description: The assay was conducted essentially according to the procedure of H. L. Lai, as described in Biochem. Biophys.
The α-glucosidase (EC3.2.1.20) was purchased from Sigma Chemical Company. The enzyme solution (100 μg/ml, 0.1 ml), 0.1 M phosphate buffer (pH 6.8, 2.55 ml), 10 mM nitrophenyl glucoside (0.1 ml), and a sample solution in DMSO (0.15 ml) were combined and incubated for 10 minutes at 37° C. After incubation, the hydrolysis was stopped by the addition of 1 ml of 16(w/v)% of sodium carbonate. Liberated p-nitrophenol was measured at 400 nm.

[2] = Effect on fat content of broiler chickens; format: in vivo; conditions: 27 days; for Fat Weight / Final Body Weight: broilers
Description: Four groups of 5 seven-day old broiler having an average weight of 129 g were used. A test diet was available ad libitum to all birds during the test period (27 days).
Control birds received no test compound. […] At the conclusion of the test, all birds were sacrificed and processed to determine fat weights and body weights. Feed intake was also recorded.

[3] = Toxicity in mice over 4 weeks; format: in vivo; conditions: 300 mg/kg dose, over a period of 4 weeks
Description: This finding, combined with in vitro enzyme inhibiting activities, provides evidence that the naturally occurring phenols of the formula (I) have unexpected utility in treating obesity in a mammalian subject.

[4] = Effect on body fat in rats on carbohydrate enriched diet; format: in vivo, Sprague-Dawley rats; conditions: for Epididymal Fat Weight / Final Body Weight / Inguinal Fat Weight: male rats
Description: Male Sprague-Dawley weanling rats (Bioresearch Services, Oriental Yeast Co. Ltd.) of three weeks old were used in this study. They were allotted to two treatment groups of five rats when they weighed an average of about 65 g. The animals were fed carbohydrate enriched diets ad libitum for a period of 31 days.
Control rate received the above diet. Two groups received different levels of compound 1 (Example 1), 0.1% and 0.2%, respectively. At the conclusion of the test, all animals were sacrificed. Inguinal fat, epididymal fat, liver, kidney, spleen, lung, heart, thymus gland, brown adipose tissue and pectoral muscle were excised and weighted.

[5] = Effect on body weight of slightly obese mice, drug-food mixture; format: in vivo, mice (ICR); conditions: for Body weight change compared with control group (in words): 4 weeks; for Body weight gain, Week Four / Body weight gain, Week One / Body weight gain, Week Three / Body weight gain, Week Two: ad libitum, female ICR mice
Description: Slightly obese female mice (ICR) having an average weight of 20-25 g were used in these studies. Compound 1 (Example 1; anacardic acid) was administered as a drug-food mixture. Normal mouse chow was powdered and the drug added to achieve a final concentration of 1 mg (low dose), 3 mg (intermediate dose), and 10 mg (high dose) per 100 g of food. The powdered chow was then repelleted into its usual form. Control chow was similarly prepared without addition of drug. Four groups of ten animals were assigned to receive normal chow (controls) or the drug in the low dose, in the intermediate dose or in the high dose. The animals were fed ad libitum over a 4-week period.

[6] = target: T2, invertase (or β-fructofuranosidase; EC 3.2.1.26) (Saccharomyces cerevisiae, UniProt P00724); test: Invertase inhibition; format: biochemical; conditions: 200 μg/ml; pH 4.5, sucrose substrate; read-out: % Inhibition of invertase enzyme activity
T2 construct: purchased Sigma Chemical Company
T2 sequence (P00724 20-532): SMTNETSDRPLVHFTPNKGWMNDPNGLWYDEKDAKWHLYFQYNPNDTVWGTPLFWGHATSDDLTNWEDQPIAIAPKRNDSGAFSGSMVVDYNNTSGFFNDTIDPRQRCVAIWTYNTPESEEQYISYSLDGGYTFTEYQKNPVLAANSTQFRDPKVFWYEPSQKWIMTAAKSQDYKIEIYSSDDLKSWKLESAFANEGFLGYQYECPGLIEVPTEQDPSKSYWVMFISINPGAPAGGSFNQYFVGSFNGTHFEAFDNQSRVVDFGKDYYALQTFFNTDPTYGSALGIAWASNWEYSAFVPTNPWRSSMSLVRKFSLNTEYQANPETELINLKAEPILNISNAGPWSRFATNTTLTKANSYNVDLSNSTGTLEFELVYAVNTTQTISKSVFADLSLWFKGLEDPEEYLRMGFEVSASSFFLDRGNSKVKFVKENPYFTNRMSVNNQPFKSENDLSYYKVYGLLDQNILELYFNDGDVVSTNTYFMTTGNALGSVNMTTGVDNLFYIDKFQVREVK
Description: The following phenols (compound numbers correspond to those designated in Example 1) were tested at a concentration of 200 μg/ml for their ability to inhibit invertase enzyme activity. The assay was conducted essentially according to the procedure of I. H. Segel, et al., as described in Biochemical Calculation, John Wiley Sons, New York, p. 287-290 (1976).
The invertase (or β-fructofuranosidase; EC 3.2.1.26) was purchased from Sigma Chemical Company. The enzyme solution (100 μg/ml, 0.1 ml), 0.2 M acetate buffer (pH 4.5, 0.2 ml), 0.5 M sucrose (0.2 ml), and a sample solution in water/DMSO (0.6 ml) were combined and incubated for 10 minutes at 37° C. After incubation, the hydrolysis was stopped by the addition of Nelson reagent. Liberated reduced sugar was measured at 500 nm by the method of Somogyi-Nelson [N. Nelson, et al., J. Biol. Chem., 153, 375 (1944)].

[7] = 10 minutes at 37° C., pH 6.8, nitrophenyl glucoside substrate
[8] = High dose, 10 mg per 100 g of food
[9] = Intermediate dose, 3 mg per 100 g of food
[10] = Low dose, 1 mg per 100 g of food

T1 sequence (P53341 whole entry): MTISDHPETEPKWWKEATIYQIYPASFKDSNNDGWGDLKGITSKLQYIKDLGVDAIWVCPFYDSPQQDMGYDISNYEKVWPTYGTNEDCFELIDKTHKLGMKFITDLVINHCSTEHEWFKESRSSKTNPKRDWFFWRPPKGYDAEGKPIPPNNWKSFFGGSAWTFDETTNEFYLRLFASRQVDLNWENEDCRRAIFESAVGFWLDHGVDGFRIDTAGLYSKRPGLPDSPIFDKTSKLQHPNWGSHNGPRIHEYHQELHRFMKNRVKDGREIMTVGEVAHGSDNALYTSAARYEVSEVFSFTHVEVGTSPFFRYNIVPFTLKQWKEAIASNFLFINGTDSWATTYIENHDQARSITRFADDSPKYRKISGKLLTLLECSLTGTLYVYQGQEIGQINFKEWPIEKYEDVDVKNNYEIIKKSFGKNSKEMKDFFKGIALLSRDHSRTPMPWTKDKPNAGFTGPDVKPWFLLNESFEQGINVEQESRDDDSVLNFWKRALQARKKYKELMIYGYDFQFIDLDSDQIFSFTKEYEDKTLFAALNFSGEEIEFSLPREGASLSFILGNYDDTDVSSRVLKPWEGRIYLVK

In the case of `CCCCCCCCCCCCCCCc1cccc(O)c1C(=O)O` [Compound 1, 6 - Pentadecylsalicylic Acid], the pIC50 [1, 7] was 5.14, the “Fat Weight” value ([2]; 0.1% in diet) was 12 g and the “Final Body Weight” value ([2]; 0.1% in diet) was 110 g. The “Fat Weight” value ([2]; 0.2% in diet) was 10 g, the “Final Body Weight” value ([2]; 0.2% in diet) was 108 g and the “Loss of the initial body weight” value ([2]; birds receiving anacardic acid in diet) was “approximately 10%”. The Toxicity [3] was “no toxicity”, the “Epididymal Fat Weight” value ([4]; 0.1% in diet, 31 days) was 3.2 g and the “Final Body Weight” value ([4]; 0.1% in diet, 31 days) was 301.6 g. The “Inguinal Fat Weight” value ([4]; 0.1% in diet, 31 days) was 7.1 g, the “Epididymal Fat Weight” value ([4]; 0.2% in diet, 31 days) was 3.7 g and the “Final Body Weight” value ([4]; 0.2% in diet, 31 days) was 311.0 g. The “Inguinal Fat Weight” value ([4]; 0.2% in diet, 31 days) was 7.5 g, the “Reduction in fat deposition” value ([4]; anacardic acid in the animal diet, statement on Tables 4 and 7 (broilers and rats)) was ≥ 20% and the “Loss of initial body weight” value ([4]; rats receiving anacardic acid in diet, 31 days) was “less than 10%”. The “Body weight change compared with control group (in words)” value (shortened to “Body weight change”) [5, 8] was “gained less weight than mice in the control group”, the “Body weight gain, Week Four” value [5, 8] was “+4.75 g” and the “Body weight gain, Week One” value [5, 8] was “+0.31 g”. For the same molecule, the “Body weight gain, Week Three” value [5, 8] was “+4.13 g”, the “Body weight gain, Week Two” value [5, 8] was “+1.88 g” and the “Body weight change” value [5, 9] was “gained less weight than mice in the control group”. The “Body weight gain, Week Four” value [5, 9] was “+5.00 g”, the “Body weight gain, Week One” value [5, 9] was “+0.56 g” and the “Body weight gain, Week Three” value [5, 9] was “+4.5 g”. For the same molecule, the “Body weight gain, Week Two” value [5, 9] was “+2.13 g”, the “Body weight change” value [5, 10] was “no significant deviation in body weight from the control group” and the “Body weight gain, Week Four” value [5, 10] was “+5.13 g”. The “Body weight gain, Week One” value [5, 10] was “+0.63 g”, the “Body weight gain, Week Three” value [5, 10] was “+4.63 g” and the “Body weight gain, Week Two” value [5, 10] was “+2.19 g”.
Molecule `CCC/C=C\C/C=C\CCCCCCCc1cccc(O)c1C(=O)O` [Compound 3, 6-[8(z), 11(z)-pentadecadienyl] salicylic acid] has a pIC50 [1, 7] of 5.42.
For `C=CC/C=C\C/C=C\CCCCCCCc1cccc(O)c1C(=O)O` [Compound 4, 6-[8(z), 11(z), 14pentadecatrienyl] salicylic acid], the pIC50 [1, 7] was 6.06 and the inhibition at 200 µg/mL [6] was 73%.
In the case of `CCCCCCCCCCCCCCCc1cccc(O)c1` [Compound 5, 3 - Pentadecylphenol], the pIC50 [1, 7] was 3.32.
Work on `CCCCCCCCCCCCCCCc1cc(O)c(C)c(O)c1` [Compound 9, 2-Methyl-5-pentadecylresorcinol] yielded a pIC50 [1, 7] of 4.41.
With `CCCCCC/C=C\CCCCCCCc1cc(O)c(C)c(O)c1` [Compound 10, 2-methyl-5-[8(z)-pentadecenyl]resorcinol] the pIC50 [1, 7] was 3.78.
Work on `CCC/C=C\C/C=C\CCCCCCCc1cc(O)c(C)c(O)c1` [Compound 11, 2-methyl-5-[8(z), 11(z)-pentadecadienyl] resorcinol] yielded a pIC50 [1, 7] of 3.82.
For `C=CC/C=C\C/C=C\CCCCCCCc1cc(O)c(C)c(O)c1` [Compound 12, 2-methyl-5-[8(z), 11(z), 14-pentadecatrienyl]resorcinol], the pIC50 [1, 7] was 3.77 and the inhibition at 200 µg/mL [6] was 79%.
Molecule `CCCCCCCCCCCCCCCc1cc(O)cc(O)c1` [Compound 13, 5-Pentadecylresorcinol] has a pIC50 [1, 7] of 3.57.
Molecule `C=CC/C=C\C/C=C\CCCCCCCc1cc(O)cc(O)c1` [Compound 16, 5-[8(z), 11(z), 14-pentadecatrienyl]resorcinol] has a pIC50 [1] of 4.35 and an inhibition at 200 µg/mL [6] of 32%.

Reference: US5240962A, “Antiobesity and fat-reducing agents” (priority 1991, dated 1993)
